Data taken from US10434197B2, “Tetrazine-trans-cyclooctene ligation for the rapid construction of radionuclide labeled probes” (University of Delaware, priority 2010, dated 2019).
Like-named read-outs stand apart in the source and are kept apart here.

What was measured:
[1] = Rate of Diels-Alder reaction with 3,6-di(2-pyridyl)-s-tetrazine (1a); type: physicochemical
Source text: The inventors have previously described tetrazine-trans-cyclooctene ligation (‘ITCO ligation’) as a method of bioconjugation that proceeds with fast reaction rates without need for catalysis (M. L. Blackman, M. Royzen and J. M. Fox, J. Am. Chem. Soc. 2008, 130, 13518-13519) trans-Cyclooctene derivatives are readily prepared from cis-cyclooctenes using a photochemical flow-reaction that the inventors developed (M. Royzen, G. P. A. Yap and J. M. Fox, J. Am. Chem. Soc. 2008, 130, 3760-3761). […] Thus, the reaction between trans-cyclooctene and 1a proceeds with a rapid rate (k2˜2000 M^−1 s^−1 in 9:1 MeOH:water), and is successful in cell media and cell lysate.
The inventors also used a photochemical flow reactor (M. Royzen, G. Yap, and J. Fox, J. Am. Chem. Soc. 2008, 130 (12), 3760) to synthesize 16, an analog of 7 with a functionalizable group. The rate of the reaction of compound 16 with 3,6-di(2-pyridyl)-s-tetrazine (1a) in methanol was k2=22000 M^−1s^−1, […] than the reaction of 1a with trans-cyclooctene in the same solvent. […] Compound 16 can be readily converted into carbamate derivatives, and compound 16 can be selectively conjugated to the protein thioredoxin using the conjugation of maleimide 26 (vide infra) to a cysteine residue, and that conjugate can in turn can take part in tetrazine ligation analogous to that shown below for compound 16.

[2] = Chemical stability of 16 (water, amine, thiol); type: physicochemical; conditions: 24 hours
[3] = Stability of 16 in human serum; type: in vitro ADME; conditions: 24 hours
[4] = Stability and isomerization of Diels-Alder conjugate 10 in water, CD3CN/H2O, PBS; type: physicochemical; conditions: for rearrangement to ^19F-11, conversion: CD3CN/H2O
[5] = 9:1 MeOH:water; cited from earlier work
in vivo = assay: in vivo; set-up: species or system mice; conditions: mouse, iv, 3.7 MBq, total radioactivity
Description: (§1) Animal procedures were performed according to a protocol approved by the University of Southern California Institutional Animal Care and Use Committee. For static microPET scans, mice bearing U87MG xenografts were injected with 3.7 MBq (100 μCi) of ^18F-41 via the tail vein (n=3 for each group). At 0.5, 1, and 2 h post injection (p.i.), the mice were anesthetized with isoflurane (5% for induction and 2% for maintenance in 100% O2) using a knock-down box. With the help of a laser beam attached to the scanner, the mice were placed in the prone position and near the center of the field of view of the scanner. The 3-min static scans were then obtained. Images were reconstructed using a 2-dimensional ordered-subsets expectation maximization (OSEM) algorithm. No background correction was performed. Regions of interest (ROIs; 5 pixels for coronal and transaxial slices) were drawn over the tumor on decay-corrected whole-body coronal images. The maximum counts per pixel per minute were obtained from the ROI and converted to counts per milliliter per minute using a calibration constant. With the assumption of a tissue density of 1 g/mL, the ROIs were converted to counts per gram per min. Image ROI-derived % ID/g values were determined by dividing counts per gram per minute with injected dose. No attenuation correction was performed. Similarly, ^18F-43 was injected into healthy nude mice for microPET study.
(§2) Representative coronal microPET images of U87MG tumor-bearing mice (n=3/group) were obtained at different times after intravenous injection of about 3.7 MBq (100 μCi) of ^18F-41. The tumors after injection of the radiotracers were all clearly visible with good contrast to contralateral background at all time points measured. […] Quantification of tumor and major organ activity accumulation in the microPET scans was achieved by measuring regions of interest (ROIs) encompassing the entire organ on the coronal images. Tumor and major organ uptake of ^18F-41 is depicted in FIG. 3A. The tumor uptake of ^18F-41 in U87MG tumor was 1.98±0.33, 1.80±0.15, and 1.27±0.33% ID/g at 0.5, 1, and 2 h p.i., respectively. The uptake of the ^18F-41 decreased rapidly with time in the muscle, affording better image contrast at later time points after injection (2 h).

U87MG tumor = assay: in vivo; set-up: species or system mice; conditions: mouse
Description: as §1, §2

## OC[C@@H]1[C@H]2CC/C=C/CC[C@@H]12 [compound 16]
[1]; aqueous solvent systems, UV-vis spectroscopy
  rate of reaction with 1a: too fast to measure
[1]; methanol
  k2, reaction with 1a: 22000 M⁻¹ s⁻¹
[1]; same solvent (methanol)
  rate relative to reaction of 1a with trans-cyclooctene: 18 times faster
[2]; 5 mM ethanethiol in MeOH
  stability: no degradation
[2]; 5 mM n-butylamine in MeOH
  stability: no degradation
[2]; water
  stability: no degradation
[3]
  stability: no degradation

## FCCO[C@@H]1CCC[C@@H]2C(c3ccccn3)=NN=C(c3ccccn3)[C@H]2CC1 [compound 10, 7-(2-fluoroethoxy)-1,4-di(pyridin-2-yl)-4a,5,6,7,8,9,10,10a-octahydrocycloocta[d]pyridazine]
[4]
  stability in water: stable
[4]; after 4 hours
  rearrangement to ^19F-11, conversion: 11%
[4]; after 48 hours
  rearrangement to ^19F-11, conversion: > 95%

## C1=C/CCCCCC/1 [trans-cyclooctene]
[5]
  k2, reaction with 1a: ~2000 M⁻¹ s⁻¹

## N=C(N)NCCC[C@@H]1NC(=O)[C@H](CSC2CC(=O)N(CCNC(=O)CCCC(=O)Nc3ccc(C4=NN=C(c5ccccn5)C5CCCCC(OCCF)CC45)nc3)C2=O)NC(=O)[C@@H](Cc2ccc(O)cc2)NC(=O)[C@H](CC(=O)O)NC(=O)CNC1=O (stereo partly drawn) [^18F-41]
In vivo
  tissue uptake at 0.5 h: 1.98 ± 0.33 %ID/g
  tissue uptake at 1 h: 1.8 ± 0.15 %ID/g
  tissue uptake at 2 h: 1.27 ± 0.33 %ID/g
U87MG tumor
  excretion route: mainly excreted through the renal system
